Test results as given in PubChem BioAssay (NCI).
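Compound exposure: 48 hours, 5 concentrations, 96-well plates. Abbreviation: GI50, concentration required for 50% inhibition of growth. TGI marks complete inhibition of growth.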

How the values were obtained:
Experiment in all cases: growth of human tumour cells (NCI), 48 h
[1] = system: LXFL 529 NSCLC
[2] = system: SK-MEL-5 melanoma
[3] = system: A498 renal
[4] = system: KM20L2 colon
[5] = system: SF-295 CNS
[6] = system: CCRF-CEM leukemia
[7] = system: A549 NSCLC
[8] = system: HOP-92 NSCLC
[9] = system: DU-145 prostate
[10] = system: NCI/ADR-RES ovarian

Compound: O=C1CC(c2ccccc2)NCN1 (configuration not stated)
- TGI [1]: > 100 µM
- TGI [2]: > 100 µM
- TGI [3]: > 100 µM
- TGI [4]: > 100 µM
- TGI [5]: > 100 µM
- TGI [6]: > 100 µM
- TGI [7]: > 100 µM

Compound: COc1ccc(/C(Cl)=C(\C=O)c2cc(OC)c(OC)c(OC)c2)cc1OC
- TGI [8]: > 100 µM
- TGI [9]: > 100 µM
- TGI [1]: > 100 µM
- TGI [2]: > 100 µM
- TGI [10]: 40.2 µM
- TGI [3]: > 90.3 µM
- TGI [4]: > 100 µM
- TGI [5]: > 100 µM
- TGI [6]: > 100 µM
- TGI [7]: > 100 µM

Compound: NC(=S)N/N=C1\C(=O)N(c2cccc([N+](=O)[O-])c2)C(=O)C1C(=O)Nc1cccc([N+](=O)[O-])c1 (configuration not stated)
- TGI [8]: > 100 µM
- TGI [1]: > 100 µM
- TGI [2]: > 100 µM
- TGI [3]: > 100 µM
- TGI [4]: > 100 µM
- TGI [5]: > 100 µM
- TGI [6]: > 100 µM
- TGI [7]: > 100 µM

Compound: N#Cc1c(C(N)=O)ncn1Cc1ccccc1
- TGI [8]: > 100 µM
- TGI [1]: > 100 µM
- TGI [2]: > 100 µM
- TGI [3]: > 100 µM
- TGI [4]: > 100 µM
- TGI [5]: > 100 µM
- TGI [6]: > 100 µM
- TGI [7]: > 100 µM

Compound: Cc1ccc(NC(=O)/C(=N/NC(=O)CC#N)C2C(=O)N(c3ccccc3)N=C2N)cc1C (configuration not stated)
- TGI [8]: > 100 µM
- TGI [1]: > 100 µM
- TGI [2]: > 100 µM
- TGI [3]: > 100 µM
- TGI [4]: > 100 µM
- TGI [5]: > 100 µM
- TGI [6]: > 100 µM
- TGI [7]: > 100 µM

Compound: CC1(C)OC(=O)C=C(O)O1.CC1(C)OC(=O)C=C(O)O1.CCO.Oc1ccc2c(c1)CCC2.[Ti]
- GI50 [1]: > 100 µM
- TGI [1]: > 100 µM
- GI50 [2]: > 100 µM
- TGI [2]: > 100 µM
- GI50 [3]: > 100 µM
- TGI [3]: > 100 µM
- GI50 [4]: > 100 µM
- TGI [4]: > 100 µM
- GI50 [5]: > 100 µM
- TGI [5]: > 100 µM
- GI50 [6]: > 100 µM
- TGI [6]: > 100 µM
- GI50 [7]: > 100 µM
- TGI [7]: > 100 µM

Compound: O=C(CC1(O)C(=O)Nc2ccccc21)c1ccc(O)cc1O (configuration not stated)
- TGI [8]: > 100 µM
- TGI [1]: > 100 µM
- TGI [2]: > 100 µM
- TGI [3]: > 100 µM
- TGI [4]: > 100 µM
- TGI [5]: > 100 µM
- TGI [7]: > 100 µM
